Earlier results in patent US7163702B1 (priority 2004, dated 2007).

Settings: human, in vivo

## N=C(N)c1ccc(OCCCCCOc2ccc(C(=N)N)cc2)cc1 [pentamidine]
  incidence of adverse reactions: around 50%
